The subject of one series is H196. Kind of series: Cell viability assay. Type of series: cell-based. The note with it: NCI-H196, 24 h; H196 (Lung); read-out: AZD5991 24h GI50.
For the next series, the system named is PL21. Kind of series: Cell viability assay. The series is classed as cell-based. The note with it: PL-21, 24 h; PL21 (AML); read-out: AZD5991 24h GI50.
The subject of another series is REC1. As to the kind of experiment: Cell viability assay. The series is classed as cell-based. Particulars: Homo sapiens, 24 h; REC1 (NHL); read-out: AZD5991 24h GI50.
A further series deals with OCIAML3. Kind of series: Caspase-3/7 activation assay. Particulars: Homo sapiens, OCI-AML-3, 6 h. Type of series: cell-based.
A further series relates to SKMEL2. Kind of series: Cell viability assay. Type of series: cell-based. The note with it: Homo sapiens, SK-MEL-2, 24 h; SKMEL2 (Skin); read-out: AZD5991 24h GI50.
In the next series the test system is CMK. Kind of series: Caspase-3/7 activation assay. The note with it: Homo sapiens, 6 h. The series is classed as cell-based.
The subject of another series is LUDLU1. As to the kind of experiment: Cell viability assay. Type of series: cell-based. The note with it: LUDLU-1, 24 h; LUDLU1 (Lung); read-out: AZD5991 24h GI50.
The test system of a further series is U2932. As to the kind of experiment: Cell viability assay. Type of series: cell-based. The note with it: Homo sapiens, 24 h; U2932 (NHL); read-out: AZD5991 24h GI50.
A further series concerns the target T1, Bcl-2 (Homo sapiens, UniProt P10415).
T1 construct: C-Terminal 6His-tagged Bcl-2 protein from Bcl-2 (M1-F212); made in house; host or cells: E. coli
As to the kind of experiment: TR-FRET binding assay. The source says: N-terminal GST-tagged-Mcl-1 protein from Mcl-1 (E171-G327), N-terminal GST-tagged Bcl-xL protein from Bcl-xL (1-209), N-Terminal 6His-tagged Bfl-1 protein from Bfl-1 (M1-K151), N-Terminal 6His-tagged Bcl-w protein from Bcl-w (M1-R171), and C-Terminal 6His-tagged Bcl-2 protein from Bcl-2 (M1-F212) were expressed as a tagged fusion protein in E. coli and subsequently purified via Glutathione Sepharose-affinity or Ni-NTA resin purification, and size-exclusion chromatography.
For TR-FRET, tagged fusion proteins were incubated with a Europium-labeled antibody and a HyLite Fluor 647-labeled peptide, or a biotin-labeled peptide with a streptavidin-labeled ulight fluorophore allowing the assembly of donor and acceptor dye pairs for use in protein-binding assays.
The reaction final concentrations for Mcl-1 were 1.5 nM GST-Mcl-1, 0.5 nM LanthaScreen Eu tagged GST antibody (LifeTechnologies cat#PV5594), and 4 nM HyLite Fluor 647-labeled Bim peptide C (Hilyte647 C2 Maleimide)-[…]; for Bcl-xl were 2 nM GST-Bcl-xl, 2 nM LanthaScreen Eu-tagged GST antibody, and 10 nM HyLite Fluor 647-labeled BAK peptide C(Hilyte647 C2 Maleimide)-[…]; for Bfl-1 were 4 nM His-Bfl-1, 0.5 nM LanthaScreen Eu-tagged HIS antibody (PerkinElmer cat#AD0205), and 10 nM HyLite Fluor 647-labeled BIM peptide C(Hilyte647-C2-Maleimide)-[…]; for Bcl-2 and Bcl-w: 2 nM His-Bcl-2, or 2 nM His-Bcl-w, with 0.5 nM LanthaScreen Eu-tagged HIS antibody, 10 nM biotin-labeled Bim peptide (Biotin-lc-[…]), and 2.4 nM a streptavidin labeled ULight Fluorophore (PerkinElmer cat#TRF0102-D). Reactions were incubated at 24 °C for 120–180 min before reading on a Tecan (InfiniteM1000 spectrofluorometer) with excitation at 340 nm and emission at […] and 665 nm. Ratio of fluorescent emission intensity at 665–620 nm was calculated for each reaction (equation 1). Percent inhibition was calculated based upon min (control compound) vs. max (DMSO) according to Eq. (2) and the IC50 was derived the smart fit curve (Genedata screener) of % inhibition vs. concentration. Ki values were calculated from Eq. […]
(In general: In TR-FRET formats the signal depends on donor and acceptor labels being close together.)

In the next series the test system is MV4-11 tumors. Kind of series: MV4-11 rat subcutaneous xenograft. Type of series: in vivo. Here is the method: Female C.B.-17 SCID mice and female nude rats were purchased from Charles River Laboratories. […]. All xenograft studies were conducted at our Association for the Assessment and Accreditation of Laboratory Animal Care accredited facility in Waltham, MA in accordance with ethical regulations described in the guidelines established by the internal Institutional Animal Care and Use Committee. […]. In mice, drugs were dosed intravenously in a volume of 5 mL kg^-1 except for venetoclax that was dosed orally in a volume of 10 mL kg^-1. […]. Ten million MV4-11 cells were injected subcutaneously in the right flank of rats in a volume of 0.1 mL. Tumor volumes (measured by caliper), animal body weight, and tumor condition were recorded twice weekly for the duration of the study. The tumor volume was calculated using the formula: length (mm) × width (mm)^2/0.52. For efficacy studies, growth inhibition from the start of treatment was assessed by comparison of the differences in tumor volume between control and treated groups. Statistical significance was evaluated using non-parametric, unpaired, two-tailed t-test. […] For pharmacokinetic analysis, plasma samples were precipitated and diluted with acetonitrile containing internal standard and analyzed by LC–MS/MS versus a calibration curve of known concentrations.

The next series relates to OCIM1. As to the kind of experiment: Caspase-3/7 activation assay. The series is classed as cell-based. The note with it: OCI-M1, 6 h.
The next series concerns HL60. Kind of series: Cell viability assay. The series is classed as cell-based. Particulars: Homo sapiens, HL-60, 24 h; HL60 (AML); read-out: AZD5991 24h GI50.
The next series relates to LnCAP. Kind of series: Cell viability assay. Type of series: cell-based. The note with it: Homo sapiens, 24 h; LnCAP (Urology); read-out: AZD5991 24h GI50.
The subject of a further series is SNU1197. As to the kind of experiment: Cell viability assay. Type of series: cell-based. Particulars: 24 h; SNU1197 (GI); read-out: AZD5991 24h GI50.

pEC50, pIC50, pKi: −log10 of the molar value. Read-outs that look alike come from different tables or passages of the source.

Data on one compound can be found in article PMC6297231 (Nature Communications, 2018).

The GI50 is the concentration at which growth is held to half of that of the control. By pEC50 is commonly meant −log10 of the EC50, conventionally taken in molar units. For orientation: pIC50 means the negative decadic logarithm of the IC50, by convention in mol/L. Read a high pIC50 as a small IC50. As usually defined, the pKi is −log10 of the Ki, conventionally taken in molar units.

T1 sequence (P10415 1-212): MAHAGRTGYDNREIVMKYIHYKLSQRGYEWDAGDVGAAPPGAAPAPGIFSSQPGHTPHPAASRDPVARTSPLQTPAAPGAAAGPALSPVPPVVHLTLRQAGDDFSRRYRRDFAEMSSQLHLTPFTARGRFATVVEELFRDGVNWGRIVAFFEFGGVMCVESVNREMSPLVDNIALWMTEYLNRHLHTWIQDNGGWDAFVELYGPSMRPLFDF
Method for CMK: (§1) Cells were plated at 3000 cells/well in 384-well white plates in corresponding cell growth media. […] Caspase-3/7 activation was subsequently determined using a Caspase-Glo 3/7 Reagent (Promega) and viability was assayed using the CellTiter-Glo Reagent (Promega) as described in manufacturer’s instructions. Dose–response curves for caspase-3/7 activation and viability were plotted and analyzed (including EC50 and GI50 determination) using GraphPad Prism.
Method for H196: as §1
Method for HL60: as §1
Method for LUDLU1: as §1
Method for LnCAP: as §1
Method for OCIAML3: as §1
Method for OCIM1: as §1
Method for PL21: as §1
Method for REC1: as §1
Method for SKMEL2: as §1
Method for SNU1197: as §1
Method for U2932: as §1

`Cc1c2c(nn1C)CSCc1cc(n(C)n1)CSc1cc(c3ccccc3c1)OCCCc1c(C(=O)O)n(C)c3c-2c(Cl)ccc13` (atropisomer, axis not shown; (Ra)) [(Ra)-7]: the GI50 in the series with H196 was above 30 µM; in the series on PL21 it was 0.403 µM; in the series with REC1, 0.728 µM; with SKMEL2, 9.31 µM; with LUDLU1 it was 0.991 µM; with U2932, 15.5 µM. For the same compound, the GI50 worked out at 0.543 µM in the series on HL60, 13.4 µM in the series on LnCAP and 27.3 µM with SNU1197. Besides, the pEC50 in the series on OCIAML3 (read-out: 6h caspase EC50, OCIAML3, single agent) is below 6.48; with OCIAML3 (read-out: AZD5991 6h EC50, OCIAML3 (AML), caspase 3/7 activation), 6.11; in the series with CMK (read-out: 6h caspase EC50, CMK, single agent), below 6.48; in the series with CMK (read-out: AZD5991 6h EC50, CMK (AML), caspase 3/7 activation), below 4.52; in the series with OCIM1 (read-out: 6h caspase EC50, OCIM1, single agent) it was below 6.48; in the series with OCIM1 (read-out: AZD5991 6h EC50, OCIM1 (AML), caspase 3/7 activation), below 4.52. Besides, the negative-log IC50 (pIC50) at Bcl-2 (FRET) is 4.70. Further, at Bcl-2 (calculated from FRET IC50), the negative-log Ki (pKi) is 5.17. Besides, the “tolerability, body weight” value in the series on MV4-11 tumors (30 mg kg^−1 i.v.) was “no significant body weight loss”. Further, the antitumor response result in the series on MV4-11 tumors (single i.v. dose 30 mg kg^−1) was “TR observed”.
